Measured values published in patent publication US20160095843A1, “PYRAZOLOPYRROLIDINE DERIVATIVES AND THEIR USE IN THE TREATMENT OF DISEASE” (NOVARTIS AG, priority 2013, published 2016).

How the values were obtained:
[1] = system: THP-1 cells; assay: Cell growth inhibition assay (CellTiter-Glo), THP-1; format: cell-based; details: Homo sapiens
Summary of the method: (§1)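 Leukemia lines grown in their own media were exposed for 4 days at 37° C. to 3-fold serial dilutions from 10 μM (0.1% DMSO). Viability by CellTiter-Glo ATP luminescence, corrected for background and day-0 plate; IC50 and TGI from four-parameter fit against vehicle (100%) and medium (−100%).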

[2] = system: K-562 cells; assay: Cell growth inhibition assay (CellTiter-Glo), K-562; format: cell-based, human; details: Homo sapiens, K562
Summary of the method: as §1

[3] = system: MV-4-11 cells; assay: Cell growth inhibition assay (CellTiter-Glo), MV-4-11; format: cell-based; details: Homo sapiens, MV4-11
Summary of the method: as §1

SMILES	GI50 [1]	GI50 [2]	GI50 [3]
Cc1cc(N2C(=O)c3nn(C(=O)N(C)C)c(C)c3C2c2ccc(Cl)cc2)cn(C)c1=O (stereo not drawn) [Example 141]	281 nM	1190 nM	136 nM
Cc1nn(C(=O)N(C)C)c2c1C(c1ccc(Cl)cc1)N(c1cc(C)c(=O)n(C)c1)C2=O (stereo not drawn) [Example 142]	239 nM	712 nM	79.3 nM
CNC(=O)n1nc(C)c2c1C(=O)N(c1cc(C)c(=O)n(C)c1)C2c1ccc(Cl)cc1 (stereo not drawn) [Example 143, 4-(4-chlorophenyl)-5-(1,5-dimethyl-6-oxo-1,6-dihydropyridin-3-yl)-N,3-dimethyl-6-oxo-5,6-dihydropyrrolo-[3,4-c]pyrazole-1(4H)-carboxamide]	300 nM	1200 nM	86 nM
CNC(=O)n1nc2c(c1C)C(c1ccc(Cl)cc1)N(c1cc(C)c(=O)n(C)c1)C2=O (stereo not drawn) [Example 144, 4-(4-chlorophenyl)-5-(1,5-dimethyl-6-oxo-1,6-dihydropyridin-3-yl)-N,3-dimethyl-6-oxo-5,6-dihydropyrrolo-[3,4-c]pyrazole-2(4H)-carboxamide]	214 nM	432 nM	59.8 nM
CNC(=O)n1nc(C)c2c1C(=O)N(c1cc(C)c3nnc(C)n3c1)C2c1ccc(Cl)cc1 (stereo not drawn) [Example 145, 4-(4-chlorophenyl)-5-(3,8-dimethyl-[1,2,4]triazolo[4,3-a]pyridin-6-yl)-N,3-dimethyl-6-oxo-5,6-dihydropyrrolo[3,4-c]pyrazole-1(4H)-carboxamide]	176 nM	875 nM	49.9 nM
CNC(=O)n1nc2c(c1C)C(c1ccc(Cl)cc1)N(c1cc(C)c3nnc(C)n3c1)C2=O (stereo not drawn) [Example 146, 4-(4-chlorophenyl)-5-(3,8-dimethyl-[1,2,4]triazolo[4,3-a]pyridin-6-yl)-N,3-dimethyl-6-oxo-5,6-dihydropyrrolo[3,4-c]pyrazole-2(4H)-carboxamide]	150 nM	314 nM	39.2 nM
CCc1nn(C(=O)N(C)C)c2c1C(c1ccc(Cl)cc1)N(c1cc(C)c(=O)n(C)c1)C2=O (stereo not drawn) [Example 147, 4-(4-chlorophenyl)-5-(1,5-dimethyl-6-oxo-1,6-dihydropyridin-3-yl)-3-ethyl-N,N-dimethyl-6-oxo-5,6-dihydropyrrolo[3,4-c]pyrazole-1(4H)-carboxamide]	157 nM	792 nM	67 nM
CCc1c2c(nn1C(=O)N(C)C)C(=O)N(c1cc(C)c(=O)n(C)c1)C2c1ccc(Cl)cc1 (stereo not drawn) [Example 148, 4-(4-chlorophenyl)-5-(1,5-dimethyl-6-oxo-1,6-dihydropyridin-3-yl)-3-ethyl-N,N-dimethyl-6-oxo-5,6-dihydropyrrolo-[3,4-c]pyrazole-2(4H)-carboxamide]	157 nM	1130 nM	81.7 nM
Cc1nn(C(=O)N(C)C)c2c1[C@@H](c1ccc(Cl)cc1)N(c1cc(C)c3nnc(C)n3c1)C2=O [Example 149, (R)-4-(4-chlorophenyl)-5-(3,8-dimethyl-[1,2,4]triazolo[4,3-a]pyridin-6-yl)-N,N,3-trimethyl-6-oxo-5,6-dihydropyrrolo-[3,4-c]pyrazole-1(4H)-carboxamide]	68.8 nM	348 nM	28 nM
Cc1cc(N2C(=O)c3nn(C(=O)N(C)C)c(C)c3[C@H]2c2ccc(Cl)cc2)cn2c(C)nnc12 [Example 150, (R)-4-(4-chlorophenyl)-5-(3,8-dimethyl-[1,2,4]triazolo[4,3-a]pyridin-6-yl)-N,N,3-trimethyl-6-oxo-5,6-dihydropyrrolo-[3,4-c]pyrazole-2(4H)-carboxamide]	101 nM	406 nM	55.5 nM
Cc1nn(C2CNC2)c2c1C(c1ccc(Cl)cc1)N(c1cc(C)c3nnc(C)n3c1)C2=O (stereo not drawn) [Example 151, 1-(azetidin-3-yl)-4-(4-chlorophenyl)-5-(3,8-dimethyl-[1,2,4]triazolo[4,3-a]pyridin-6-yl)-3-methyl-4,5-dihydropyrrolo[3,4-c]pyrazol-6(1H)-one]	778 nM	2610 nM	226 nM
Cc1cc(N2C(=O)c3nn(C4CNC4)c(C)c3C2c2ccc(Cl)cc2)cn2c(C)nnc12 (stereo not drawn) [Example 152, 2-(azetidin-3-yl)-4-(4-chlorophenyl)-5-(3,8-dimethyl-[1,2,4]triazolo[4,3-a]pyridin-6-yl)-3-methyl-4,5-dihydropyrrolo[3,4-c]pyrazol-6(2H)-one]	2600 nM	4330 nM	438 nM
CC(=O)N1CC(n2nc(C)c3c2C(=O)N(c2cc(C)c(=O)n(C)c2)C3c2ccc(Cl)cc2)C1 (stereo not drawn) [Example 153, 1-(1-acetylazetidin-3-yl)-4-(4-chlorophenyl)-5-(1,5-dimethyl-6-oxo-1,6-dihydropyridin-3-yl)-3-methyl-4,5-dihydropyrrolo[3,4-c]pyrazol-6(1H)-one]	229 nM	925 nM	115 nM
CC(=O)N1CC(n2nc(C)c3c2C(=O)N(c2cc(C)c4nnc(C)n4c2)C3c2ccc(Cl)cc2)C1 (stereo not drawn) [Example 154, 1-(1-acetylazetidin-3-yl)-4-(4-chlorophenyl)-5-(3,8-dimethyl-[1,2,4]triazolo[4,3-a]pyridin-6-yl)-3-methyl-4,5-dihydropyrrolo[3,4-c]pyrazol-6(1H)-one]	243 nM	956 nM	59 nM
CCOC(=O)N1CC(n2nc(C)c3c2C(=O)N(c2cc(C)c(=O)n(C)c2)C3c2ccc(Cl)cc2)C1 (stereo not drawn) [Example 155, Ethyl 3-(4-(4-chlorophenyl)-5-(1,5-dimethyl-6-oxo-1,6-dihydropyridin-3-yl)-3-methyl-6-oxo-5,6-dihydropyrrolo[3,4-c]pyrazol-1(4H)-yl)azetidine-1-carboxylate]	120 nM	638 nM	73.4 nM
CCOC(=O)N1CC(n2nc(C)c3c2C(=O)N(c2cc(C)c4nnc(C)n4c2)C3c2ccc(Cl)cc2)C1 (stereo not drawn) [Example 156, Ethyl 3-(4-(4-chlorophenyl)-5-(3,8-dimethyl-[1,2,4]triazolo[4,3-a]pyridin-6-yl)-3-methyl-6-oxo-5,6-dihydropyrrolo[3,4-c]pyrazol-1(4H)-yl)azetidine-1-carboxylate]	69.6 nM	374 nM	35.6 nM
Cc1nn(C2CN(C)C2)c2c1C(c1ccc(Cl)cc1)N(c1cc(C)c3nnc(C)n3c1)C2=O (stereo not drawn) [Example 157, 4-(4-chlorophenyl)-5-(3,8-dimethyl-[1,2,4]triazolo[4,3-a]pyridin-6-yl)-3-methyl-1-(1-methylazetidin-3-yl)-4,5-dihydropyrrolo[3,4-c]pyrazol-6(1H)-one]	158 nM	534 nM	50 nM
Cc1cc(N2C(=O)c3nn(C4CN(C)C4)c(C)c3C2c2ccc(Cl)cc2)cn2c(C)nnc12 (stereo not drawn) [Example 158, 4-(4-chlorophenyl)-5-(3,8-dimethyl-[1,2,4]triazolo[4,3-a]pyridin-6-yl)-3-methyl-2-(1-methylazetidin-3-yl)-4,5-dihydropyrrolo-[3,4-c]pyrazol-6(2H)-one]	142 nM	484 nM	26.6 nM
Cc1cc(N2C(=O)c3c(c(CF)nn3C3CC3)C2c2ccc(Cl)cc2)cn2c(C)nnc12 (stereo not drawn) [Example 159, 4-(4-chlorophenyl)-1-cyclopropyl-5-(3,8-dimethyl-[1,2,4]triazolo[4,3-a]pyridin-6-yl)-3-(fluoromethyl)-4,5-dihydropyrrolo[3,4-c]pyrazol-6(1H)-one]	36.9 nM	116 nM	40 nM
Cc1nn(C2CC2)c2c1C(c1ccc(Cl)cc1)N(c1cn(C)c(=O)c3[nH]ccc13)C2=O (stereo not drawn) [Example 160, 4-(4-(4-chlorophenyl)-1-cyclopropyl-3-methyl-6-oxopyrrolo-[3,4-c]pyrazol-5(1H,4H,6H)-yl)-6-methyl-1H-pyrrolo[2,3-c]pyridin-7(6H)-one]	56.1 nM	426 nM	66.2 nM
CNc1cc(N2C(=O)c3c(c(C)nn3C3CC3)[C@H]2c2ccc(Cl)cc2)nn2c(C)nnc12 [Example 161, (R)-4-(4-chlorophenyl)-1-cyclopropyl-3-methyl-5-(3-methyl-8-(methylamino)-[1,2,4]triazolo[4,3-b]pyridazin-6-yl)-4,5-dihydropyrrolo-[3,4-c]pyrazol-6(1H)-one]	78.5 nM	352 nM	66.1 nM
COCc1nn(C2CC2)c2c1[C@@H](c1ccc(Cl)cc1)N(c1cc(C)c(=O)n(C)c1)C2=O [Example 162, (R)-4-(4-chlorophenyl)-1-cyclopropyl-5-(1,5-dimethyl-6-oxo-1,6-dihydropyridin-3-yl)-3-(methoxymethyl)-4,5-dihydropyrrolo[3,4-c]pyrazol-6(1H)-one]	54.6 nM	244 nM	41.8 nM
COCc1nn(C2CC2)c2c1[C@@H](c1ccc(Cl)cc1)N(c1cc(C)c3nnc(C)n3c1)C2=O [Example 163, (R)-4-(4-chlorophenyl)-1-cyclopropyl-5-(3,8-dimethyl-[1,2,4]triazolo[4,3-a]pyridin-6-yl)-3-(methoxymethyl)-4,5-dihydropyrrolo-[3,4-c]pyrazol-6(1H)-one]	17.5 nM	79.8 nM	10.3 nM
Cc1cc(N2C(=O)c3c(c(C4CC4)nn3C)[C@H]2c2ccc(Cl)cc2)cn2c(C)nnc12 [Example 164, (R)-4-(4-chlorophenyl)-3-cyclopropyl-5-(3,8-dimethyl-[1,2,4]triazolo[4,3-a]pyridin-6-yl)-1-methyl-4,5-dihydropyrrolo-[3,4-c]pyrazol-6(1H)-one]	9.6 nM	98.2 nM	7.69 nM
Cc1n[nH]c2c1[C@@H](c1ccc(Cl)cc1)N(c1cc(C)c3nnc(C)n3c1)C2=O [Example 165, (R)-4-(4-chlorophenyl)-5-(3,8-dimethyl-[1,2,4]triazolo[4,3-a]pyridin-6-yl)-3-methyl-4,5-dihydropyrrolo[3,4-c]pyrazol-6(1H)-one]	38.3 nM	190 nM	21.7 nM
